The assay deals with Swiss mice, Sarcoma 180 sc, mean tumor weight T/C. In words: NCI In Vivo Anticancer Drug Screen. Data for tumor model Sarcoma 180 (subcutaneous) in Swiss mice. As to conditions: endpoint: mean tumor weight, higher = larger tumour. The procedure: The antitumor activity of compounds was measured in mice bearing transplantable tumors. Survival or tumor size were measured and the results are expressed as the measurement made in the treated group (T) divided by the measurement made in the vehicle treated control group (C). The tumor model used in this assay is Sarcoma 180 (subcutaneous) in Swiss mice

Setting [1] is: dose: 10.0 mg/kg/injection, schedule: Q01DX007 (ip), vehicle: other.
Setting [2] is: dose: 3.5 mg/kg/injection, schedule: Q01DX007 (ip), vehicle: carboxymethylcellulose (CMC).

“And” between values parts separate entries of the source, which are not always exact repeats. Identical values can stand only once.

The term T/C denotes the result in the treated group divided by that in the control group, in per cent. For `C[N+]1(CCC[N+]2(C)CC3C4C=CC(CC4)C3C2)CCOCC1` (stereo not drawn), the T/C runs as follows: (dose: 7.75 mg/kg/injection, schedule: Q01DX007 (ip), vehicle: saline) 62 % of control; (dose: 15.5 mg/kg/injection, schedule: Q01DX007 (ip), vehicle: saline) 52 % of control; (dose: 31.0 mg/kg/injection, schedule: Q01DX007 (ip), vehicle: saline) 86 % of control; (dose: 62.0 mg/kg/injection, schedule: Q01DX007 (ip), vehicle: saline) 45 % of control.

Consider `COC(=O)c1cccc2c[n+]3c(cc12)-c1[nH]c2cc(OC)ccc2c1CC3`, for which the T/C under setting [1] is 70 % of control; the T/C (dose: 50.0 mg/kg/injection, schedule: Q01DX007 (ip), vehicle: other) was 73 % of control; the T/C (dose: 200.0 mg/kg/injection, schedule: Q01DX007 (ip), vehicle: other) is 74 % of control.

For `Cc1ccc(NC(C(=O)c2ccccc2)c2ccccc2)cc1` (stereo not drawn), the T/C (dose: 150.0 mg/kg/injection, schedule: Q01DX007 (ip), vehicle: saline) is 39 % of control and the T/C (dose: 225.0 mg/kg/injection, schedule: Q01DX007 (ip), vehicle: saline) is 20 % of control.

With `O=C1C=CC(=Nc2ccc3c(c2)C(Br)c2ccccc2-3)O1` (stereo not drawn), the T/C is, setting by setting: (dose: 16.5 mg/kg/injection, schedule: Q#A X014 (ip), vehicle: saline) 57 % of control and 75 % of control; (dose: 37.5 mg/kg/injection, schedule: Q#A X014 (ip), vehicle: saline) 100 % of control; (dose: 56.25 mg/kg/injection, schedule: Q#A X014 (ip), vehicle: saline) 73 % of control.

As for `CC(C)(c1ccccc1)c1ccc(O)cc1`, the T/C runs as follows: (dose: 37.5 mg/kg/injection, schedule: Q01DX007 (ip), vehicle: carboxymethylcellulose (CMC)) 64 % of control; (dose: 75.0 mg/kg/injection, schedule: Q01DX007 (ip), vehicle: carboxymethylcellulose (CMC)) 73 % of control; (dose: 150.0 mg/kg/injection, schedule: Q01DX007 (ip), vehicle: carboxymethylcellulose (CMC)) 44 % of control.

`O=P(Oc1ccccc1)(OP(=O)(Oc1ccccc1)N(CCCl)CCCl)N(CCCl)CCCl` (stereo not drawn): the T/C is 85 % of control (dose: 12.5 mg/kg/injection, schedule: Q#A X014 (ip), vehicle: other); 76 % of control (dose: 25.0 mg/kg/injection, schedule: Q#A X014 (ip), vehicle: other); 112 % of control (dose: 50.0 mg/kg/injection, schedule: Q#A X014 (ip), vehicle: other).

As for `CC(=O)OCC1OC(n2cnc3c(=S)nc(N)[nH]c32)C(OC(C)=O)C1OC(C)=O` (stereo not drawn), the T/C by setting is: (dose: 3.0 mg/kg/injection, schedule: Q01DX007 (ip), vehicle: other) 12 % of control; (dose: 3.0 mg/kg/injection, schedule: Q01DX007 (ip), vehicle: saline) 64 % of control; (dose: 4.4 mg/kg/injection, schedule: Q01DX007 (ip), vehicle: other) 6 % of control; (dose: 6.6 mg/kg/injection, schedule: Q01DX007 (ip), vehicle: carboxymethylcellulose (CMC)) 43 % of control; (dose: 6.6 mg/kg/injection, schedule: Q01DX007 (ip), vehicle: other) 18 % of control and 29 % of control; (dose: 10.0 mg/kg/injection, schedule: Q01DX007 (ip), vehicle: carboxymethylcellulose (CMC)) 28 % of control. Moreover, the T/C under setting [1] is 51 % of control; the T/C (dose: 15.0 mg/kg/injection, schedule: Q01DX007 (ip), vehicle: carboxymethylcellulose (CMC)) is 9 % of control; the T/C (dose: 15.0 mg/kg/injection, schedule: Q01DX007 (ip), vehicle: other) is 6 % of control and 24 % of control; the T/C (dose: 22.0 mg/kg/injection, schedule: Q01DX007 (ip), vehicle: carboxymethylcellulose (CMC)) was 9 % of control; the T/C (dose: 22.0 mg/kg/injection, schedule: Q01DX007 (ip), vehicle: other) is 3 % of control and 10 % of control; the T/C (dose: 33.0 mg/kg/injection, schedule: Q01DX007 (ip), vehicle: other) was 11 % of control.

For `S=P(N1CC1)(N1CC1)N1CC1`, the T/C by setting is: (dose: 0.43 mg/kg/injection, schedule: Q01DX007 (ip), vehicle: carboxymethylcellulose (CMC)) 91 % of control; (dose: 0.87 mg/kg/injection, schedule: Q01DX007 (ip), vehicle: carboxymethylcellulose (CMC)) 85 % of control; (dose: 1.75 mg/kg/injection, schedule: Q01DX007 (ip), vehicle: carboxymethylcellulose (CMC)) 104 % of control; under setting [2], 65 % of control; (dose: 218.5 mg/kg/injection, schedule: Q#A X014 (ip), vehicle: carboxymethylcellulose (CMC)) 108 % of control; (dose: 437.5 mg/kg/injection, schedule: Q#A X014 (ip), vehicle: carboxymethylcellulose (CMC)) 110 % of control. For the same compound, the T/C (dose: 875.0 mg/kg/injection, schedule: Q#A X014 (ip), vehicle: carboxymethylcellulose (CMC)) is 46 % of control.

On to `CCc1nc(N)nc(N)c1-c1ccc(Cl)c(Cl)c1.O.O.[Zn]`, for which the T/C was 62 % of control (dose: 1.5 mg/kg/injection, schedule: Q01DX007 (ip), vehicle: carboxymethylcellulose (CMC)); 65 % of control (dose: 2.3 mg/kg/injection, schedule: Q01DX007 (ip), vehicle: carboxymethylcellulose (CMC)); 46 % of control under setting [2]; 39 % of control (dose: 8.0 mg/kg/injection, schedule: Q01DX007 (ip), vehicle: carboxymethylcellulose (CMC)); 18 % of control (dose: 12.0 mg/kg/injection, schedule: Q01DX007 (ip), vehicle: carboxymethylcellulose (CMC)).

For the compound `CC(C)=CCC/C(C)=C/CO`, the T/C was 83 % of control (dose: 7.8 mg/kg/injection, schedule: Q01DX007 (ip), vehicle: saline); 83 % of control (dose: 15.6 mg/kg/injection, schedule: Q01DX007 (ip), vehicle: saline); 110 % of control (dose: 31.3 mg/kg/injection, schedule: Q01DX007 (ip), vehicle: saline); 90 % of control (dose: 62.5 mg/kg/injection, schedule: Q01DX007 (ip), vehicle: saline).

Consider `CCCCCCCCCCCCNCCCCCCCCCCCC`, for which the T/C was 107 % of control (dose: 2.5 mg/kg/injection, schedule: Q01DX007 (ip), vehicle: water); 54 % of control (dose: 5.0 mg/kg/injection, schedule: Q01DX007 (ip), vehicle: water); 60 % of control (dose: 7.5 mg/kg/injection, schedule: Q01DX007 (ip), vehicle: water); 44 % of control (dose: 10.0 mg/kg/injection, schedule: Q01DX007 (ip), vehicle: water).

As to `O=[N+]([O-])c1ccc(/C=N\Nc2ccc([N+](=O)[O-])cn2)cc1`, the T/C runs as follows: (dose: 5.1 mg/kg/injection, schedule: Q#A X014 (ip), vehicle: methylcellulose (MC)) 88 % of control; (dose: 10.25 mg/kg/injection, schedule: Q#A X014 (ip), vehicle: methylcellulose (MC)) 61 % of control; (dose: 12.0 mg/kg/injection, schedule: Q#A X014 (ip), vehicle: methylcellulose (MC)) 98 % of control; (dose: 20.55 mg/kg/injection, schedule: Q#A X014 (ip), vehicle: methylcellulose (MC)) 64 % of control; (dose: 41.1 mg/kg/injection, schedule: Q#A X014 (ip), vehicle: methylcellulose (MC)) 47 % of control.

As to `CCCCCCCCCCCCO[P+](=O)OCCCCCCCCCCCC`, the T/C is 111 % of control (dose: 100.0 mg/kg/injection, schedule: Q01DX007 (ip), vehicle: carboxymethylcellulose (CMC)); 45 % of control (dose: 111.0 mg/kg/injection, schedule: Q#A X014 (ip), vehicle: carboxymethylcellulose (CMC)); 47 % of control and 71 % of control (dose: 222.0 mg/kg/injection, schedule: Q01DX007 (ip), vehicle: carboxymethylcellulose (CMC)); 25 % of control (dose: 250.0 mg/kg/injection, schedule: Q#A X014 (ip), vehicle: carboxymethylcellulose (CMC)); 32 % of control (dose: 300.0 mg/kg/injection, schedule: Q01DX007 (ip), vehicle: carboxymethylcellulose (CMC)); 63 % of control and 65 % of control (dose: 333.0 mg/kg/injection, schedule: Q01DX007 (ip), vehicle: carboxymethylcellulose (CMC)). Further, the T/C is, setting by setting: (dose: 375.0 mg/kg/injection, schedule: Q#A X014 (ip), vehicle: carboxymethylcellulose (CMC)) 20 % of control; (dose: 500.0 mg/kg/injection, schedule: Q01DX007 (ip), vehicle: carboxymethylcellulose (CMC)) 42 % of control and 50 % of control; (dose: 750.0 mg/kg/injection, schedule: Q01DX007 (ip), vehicle: carboxymethylcellulose (CMC)) 12 % of control.

For `Nc1ncnc2nc[nH]c12`, the T/C is 104 % of control (dose: 25.0 mg/kg/injection, schedule: Q01DX007 (ip), vehicle: saline); 87 % of control (dose: 50.0 mg/kg/injection, schedule: Q01DX007 (ip), vehicle: saline); 119 % of control (dose: 100.0 mg/kg/injection, schedule: Q01DX007 (ip), vehicle: saline); 57 % of control (dose: 200.0 mg/kg/injection, schedule: Q01DX007 (ip), vehicle: saline).

The record behind these values is PubChem BioAssay AID342 (DTP/NCI, 2004).
